How the values were obtained:
Experiment in all cases: relative viability (nuclei count vs DMSO), 5 days (fraction); higher = more cells survive
[1] = tested on: 201T
Outline: (§1)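 Lung cancer cell lines in 1536-well plates got either a single drug or a fixed anchor-drug dose together with five library-drug doses (not always all listed) in √10 steps, by pin tool, on the day after seeding. Nuclei were counted after 5 days, and relative viability is the treated-to-vehicle ratio of nuclei counts. Values are medians of duplicate plates.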

[2] = tested on: A-427
Outline: as §1

[3] = tested on: COR-L23
Outline: as §1

[4] = tested on: HARA
Outline: as §1

[5] = tested on: HCC-78
Outline: as §1

[6] = tested on: LCLC-103H
Outline: as §1

[7] = tested on: LCLC-97TM1
Outline: as §1

[8] = tested on: LK-2
Outline: as §1

[9] = tested on: LOU-NH91
Outline: as §1

[10] = tested on: LXF-289
Outline: as §1

[11] = tested on: NCI-H1650
Outline: as §1

[12] = tested on: NCI-H1651
Outline: as §1

[13] = tested on: NCI-H1793
Outline: as §1

[14] = tested on: NCI-H2347
Outline: as §1

[15] = tested on: NCI-H23
Outline: as §1

[16] = tested on: NCI-H2405
Outline: as §1

[17] = tested on: NCI-H520
Outline: as §1

[18] = tested on: NCI-H522
Outline: as §1

[19] = tested on: NCI-H647
Outline: as §1

[20] = tested on: NCI-H838
Outline: as §1

[21] = tested on: PC-3 [JPC-3]
Outline: as §1

[22] = tested on: RERF-LC-KJ
Outline: as §1

[23] = tested on: UMC-11
Outline: as §1

CN1CCN(CCOc2cc(OC3CCOCC3)c3c(Nc4c(Cl)ccc5c4OCO5)ncnc3c2)CC1 [Saracatinib] + Cc1cc(Nc2cc(N3CCN(C)CC3)nc(Sc3ccc(NC(=O)C4CC4)cc3)n2)n[nH]1 [Tozasertib] (partner 0.1 µM)
relative viability ([1]; first compound 0.02 µM): 0.977
relative viability ([1]; first compound 0.2 µM): 0.89
relative viability ([1]; first compound 0.6325 µM): 0.821
relative viability ([1]; first compound 2 µM): 0.686
relative viability ([2]; first compound 0.02 µM): 0.215
relative viability ([2]; first compound 0.2 µM): 0.18
relative viability ([2]; first compound 0.6325 µM): 0.207
relative viability ([2]; first compound 2 µM): 0.206
relative viability ([3]; first compound 0.02 µM): 0.185
relative viability ([3]; first compound 0.2 µM): 0.207
relative viability ([3]; first compound 0.6325 µM): 0.155
relative viability ([3]; first compound 2 µM): 0.174
relative viability ([4]; first compound 0.02 µM): 0.118
relative viability ([4]; first compound 0.2 µM): 0.0998
relative viability ([4]; first compound 0.6325 µM): 0.0847
relative viability ([4]; first compound 2 µM): 0.0726
relative viability ([5]; first compound 0.02 µM): 0.403
relative viability ([5]; first compound 0.6325 µM): 0.572
relative viability ([5]; first compound 2 µM): 0.405
relative viability ([6]; first compound 0.02 µM): 0.46
relative viability ([6]; first compound 0.2 µM): 0.465
relative viability ([6]; first compound 0.6325 µM): 0.465
relative viability ([6]; first compound 2 µM): 0.454
relative viability ([7]; first compound 0.02 µM): 0.21
relative viability ([7]; first compound 0.2 µM): 0.173
relative viability ([7]; first compound 0.6325 µM): 0.287
relative viability ([7]; first compound 2 µM): 0.185
relative viability ([8]; first compound 0.02 µM): 0.205
relative viability ([8]; first compound 0.2 µM): 0.188
relative viability ([8]; first compound 0.6325 µM): 0.204
relative viability ([8]; first compound 2 µM): 0.193
relative viability ([9]; first compound 0.02 µM): 0.655
relative viability ([9]; first compound 0.2 µM): 0.449
relative viability ([9]; first compound 0.6325 µM): 0.476
relative viability ([9]; first compound 2 µM): 0.42
relative viability ([10]; first compound 0.02 µM): 0.205
relative viability ([10]; first compound 0.2 µM): 0.183
relative viability ([10]; first compound 0.6325 µM): 0.164
relative viability ([10]; first compound 2 µM): 0.0819
relative viability ([11]; first compound 0.02 µM): 0.435
relative viability ([11]; first compound 0.2 µM): 0.294
relative viability ([11]; first compound 0.6325 µM): 0.22
relative viability ([11]; first compound 2 µM): 0.204
relative viability ([12]; first compound 0.02 µM): 0.71
relative viability ([12]; first compound 0.2 µM): 0.555
relative viability ([12]; first compound 0.6325 µM): 0.691
relative viability ([12]; first compound 2 µM): 0.625
relative viability ([13]; first compound 0.02 µM): 0.318
relative viability ([13]; first compound 0.6325 µM): 0.209
relative viability ([13]; first compound 2 µM): 0.142
relative viability ([14]; first compound 0.02 µM): 0.514
relative viability ([14]; first compound 0.2 µM): 0.517
relative viability ([14]; first compound 0.6325 µM): 0.539
relative viability ([14]; first compound 2 µM): 0.518
relative viability ([15]; first compound 0.02 µM): 0.743
relative viability ([15]; first compound 0.2 µM): 0.345
relative viability ([15]; first compound 0.6325 µM): 0.426
relative viability ([15]; first compound 2 µM): 0.327
relative viability ([16]; first compound 0.02 µM): 0.778
relative viability ([16]; first compound 0.2 µM): 0.661
relative viability ([16]; first compound 0.6325 µM): 0.706
relative viability ([16]; first compound 2 µM): 0.521
relative viability ([17]; first compound 0.02 µM): 0.407
relative viability ([17]; first compound 0.6325 µM): 0.383
relative viability ([17]; first compound 2 µM): 0.314
relative viability ([18]; first compound 0.02 µM): 0.557
relative viability ([18]; first compound 0.6325 µM): 0.534
relative viability ([18]; first compound 2 µM): 0.458
relative viability ([19]; first compound 0.02 µM): 0.257
relative viability ([19]; first compound 0.2 µM): 0.293
relative viability ([19]; first compound 0.6325 µM): 0.275
relative viability ([19]; first compound 2 µM): 0.231
relative viability ([20]; first compound 0.02 µM): 0.243
relative viability ([20]; first compound 0.2 µM): 0.241
relative viability ([20]; first compound 0.6325 µM): 0.264
relative viability ([20]; first compound 2 µM): 0.246
relative viability ([21]; first compound 0.02 µM): 0.933
relative viability ([21]; first compound 0.2 µM): 0.824
relative viability ([21]; first compound 0.6325 µM): 0.834
relative viability ([21]; first compound 2 µM): 0.469
relative viability ([22]; first compound 0.02 µM): 0.52
relative viability ([22]; first compound 0.2 µM): 0.465
relative viability ([22]; first compound 0.6325 µM): 0.497
relative viability ([22]; first compound 2 µM): 0.363
relative viability ([23]; first compound 0.02 µM): 0.206
relative viability ([23]; first compound 0.2 µM): 0.175
relative viability ([23]; first compound 0.6325 µM): 0.213
relative viability ([23]; first compound 2 µM): 0.185

CN1CCN(CCOc2cc(OC3CCOCC3)c3c(Nc4c(Cl)ccc5c4OCO5)ncnc3c2)CC1 [Saracatinib] + Cc1nc(Nc2ncc(C(=O)Nc3c(C)cccc3Cl)s2)cc(N2CCN(CCO)CC2)n1 [Dasatinib] (partner 0.075 µM)
relative viability ([1]; first compound 0.02 µM): 0.602
relative viability ([1]; first compound 0.2 µM): 0.567
relative viability ([1]; first compound 0.6325 µM): 0.57
relative viability ([1]; first compound 2 µM): 0.489
relative viability ([2]; first compound 0.02 µM): 0.658
relative viability ([2]; first compound 0.2 µM): 0.652
relative viability ([2]; first compound 0.6325 µM): 0.691
relative viability ([2]; first compound 2 µM): 0.777
relative viability ([3]; first compound 0.02 µM): 0.553
relative viability ([3]; first compound 0.2 µM): 0.533
relative viability ([3]; first compound 0.6325 µM): 0.542
relative viability ([3]; first compound 2 µM): 0.478
relative viability ([4]; first compound 0.02 µM): 0.225
relative viability ([4]; first compound 0.2 µM): 0.224
relative viability ([4]; first compound 0.6325 µM): 0.272
relative viability ([4]; first compound 2 µM): 0.23
relative viability ([5]; first compound 0.02 µM): 0.477
relative viability ([5]; first compound 0.6325 µM): 0.421
relative viability ([5]; first compound 2 µM): 0.352
relative viability ([6]; first compound 0.02 µM): 0.475
relative viability ([6]; first compound 0.2 µM): 0.496
relative viability ([6]; first compound 0.6325 µM): 0.466
relative viability ([6]; first compound 2 µM): 0.515
relative viability ([7]; first compound 0.02 µM): 0.636
relative viability ([7]; first compound 0.2 µM): 0.519
relative viability ([7]; first compound 0.6325 µM): 0.723
relative viability ([7]; first compound 2 µM): 0.33
relative viability ([8]; first compound 0.02 µM): 0.275
relative viability ([8]; first compound 0.2 µM): 0.288
relative viability ([8]; first compound 0.6325 µM): 0.345
relative viability ([8]; first compound 2 µM): 0.376
relative viability ([9]; first compound 0.02 µM): 0.507
relative viability ([9]; first compound 0.2 µM): 0.429
relative viability ([9]; first compound 0.6325 µM): 0.418
relative viability ([9]; first compound 2 µM): 0.419
relative viability ([10]; first compound 0.02 µM): 0.224
relative viability ([10]; first compound 0.2 µM): 0.218
relative viability ([10]; first compound 0.6325 µM): 0.185
relative viability ([10]; first compound 2 µM): 0.212
relative viability ([11]; first compound 0.02 µM): 0.378
relative viability ([11]; first compound 0.2 µM): 0.299
relative viability ([11]; first compound 0.6325 µM): 0.359
relative viability ([11]; first compound 2 µM): 0.371
relative viability ([12]; first compound 0.02 µM): 0.565
relative viability ([12]; first compound 0.2 µM): 0.37
relative viability ([12]; first compound 0.6325 µM): 0.439
relative viability ([12]; first compound 2 µM): 0.406
relative viability ([13]; first compound 0.02 µM): 0.439
relative viability ([13]; first compound 0.6325 µM): 0.426
relative viability ([13]; first compound 2 µM): 0.341
relative viability ([14]; first compound 0.02 µM): 0.305
relative viability ([14]; first compound 0.2 µM): 0.293
relative viability ([14]; first compound 0.6325 µM): 0.32
relative viability ([14]; first compound 2 µM): 0.346
relative viability ([15]; first compound 0.02 µM): 0.805
relative viability ([15]; first compound 0.2 µM): 0.613
relative viability ([15]; first compound 0.6325 µM): 0.837
relative viability ([15]; first compound 2 µM): 0.789
relative viability ([16]; first compound 0.02 µM): 0.22
relative viability ([16]; first compound 0.2 µM): 0.223
relative viability ([16]; first compound 0.6325 µM): 0.228
relative viability ([16]; first compound 2 µM): 0.169
relative viability ([17]; first compound 0.02 µM): 0.21
relative viability ([17]; first compound 0.6325 µM): 0.194
relative viability ([17]; first compound 2 µM): 0.244
relative viability ([18]; first compound 0.02 µM): 0.88
relative viability ([18]; first compound 0.6325 µM): 0.864
relative viability ([18]; first compound 2 µM): 0.8
relative viability ([19]; first compound 0.02 µM): 0.246
relative viability ([19]; first compound 0.2 µM): 0.242
relative viability ([19]; first compound 0.6325 µM): 0.214
relative viability ([19]; first compound 2 µM): 0.246
relative viability ([20]; first compound 0.02 µM): 0.274
relative viability ([20]; first compound 0.2 µM): 0.277
relative viability ([20]; first compound 0.6325 µM): 0.277
relative viability ([20]; first compound 2 µM): 0.281
relative viability ([21]; first compound 0.02 µM): 0.941
relative viability ([21]; first compound 0.2 µM): 0.952
relative viability ([21]; first compound 0.6325 µM): 0.682
relative viability ([21]; first compound 2 µM): 0.595
relative viability ([22]; first compound 0.02 µM): 0.883
relative viability ([22]; first compound 0.2 µM): 0.797
relative viability ([22]; first compound 0.6325 µM): 0.695
relative viability ([22]; first compound 2 µM): 0.676
relative viability ([23]; first compound 0.02 µM): 0.471
relative viability ([23]; first compound 0.6325 µM): 0.543
relative viability ([23]; first compound 2 µM): 0.473
